Test results reported in patent publication US6069167A, “Use of antioxidant agents to treat cholestatic liver disease” (priority 1997, dated 2000).

Assays:
[1] = Serum bile acid concentrations four hours after intravenous TCDC by GC-MS; format: in vivo, male Sprague-Dawley rats
Text: Young adult male Sprague-Dawley rats (150-180 gram weight) purchased from Sasco, Inc. (Omaha, Nebr.) were fed Purina Lab Chow (Ralston Purina Co., Chicago, Ill.) ad libitum for 2-3 weeks and housed in polyethylene cages with stainless steel tops on a 12-hour light-dark cycle. All rats received humane care in compliance with the guidelines of the Animal Use in Research Committee of the University of Colorado Health Sciences Center. Rats were then randomly assigned (4-5 per group) to receive 0 (vehicle only), 5, 10, or 20 μmol of taurochenodeoxycholic acid (TCDC)/100 gram body weight. TCDC is a conjugate of the bile acid most implicated in cholestatic liver injury9,11,12. TCDC was solubilized in 5% dextrose, 10% BSA, and 0.45% normal saline. TCDC was administered while rats were under light methoxyflurane anesthesia as an intravenous bolus of the desired dose in 1 to 2 minutes through the tail vein. TCDC dosing was performed between 7 and 9 am. Rats recovered from the injection uneventfully and blood was obtained at 0, 4, 8, 12 and 24 hours after the injection for determination of AST, ALT total bilirubin and alkaline phosphatase by an automated chemical analyzer (Hitachi 747 Chemical Analyzer).
(§1) Because serum AST and ALT concentrations peaked at 4 hours, further evaluation of liver injury was performed at that time point Total concentrations (conjugated+free bile acids) of individual bile acids were measured in serum obtained at 4 hours by gas chromatography-mass spectroscopy (GC-MS), as previously described^30. Briefly, after serum samples were extracted with the addition of the internal standard 7-alpha, 12-alpha, dihydroxy-5 beta cholanic acid, trimethylsilyl esterification was performed. Individual bile acids were then quantified by GC or GC-MS using a Hewlett-Packard 5790 flame ionization detector equipped with a 30 meter DB-1 capillary column with internal diameter of 0.25 mm and a film thickness of 0.25 micrometers (J & W Scientific, Folsom, Calif.). For GC-MS measurements, a Hewlett-Packard 5970-A mass selective detector operating in selective ion monitoring mode was used. Results were expressed as μmol/L for each individual bile acid.

liver = experiment: Histology of the liver in the in vivo reversible hepatic injury model; set-up: species or system rat
Text: The instant invention also provides for an in vivo reversible hepatic injury model animal model, preferably a rodent model, most preferably a rat model. The animal can be dosed with any injurious bile acid or analogs thereof Suitable injurious bile acids include conjugates of chenodeoxycholic acid and lithocholic acid. A particularly suitable injurious bile acid analog is taurochenodeoxycholic acid. The injurious bile acid or analog can be administered by any suitable means, such as injection, oral or rectal administration. The injurious bile acid or analog thereof can be conveniently administered intravenously, particularly intravenous administration in the tail vein. The time of administration should be for less than 10 minutes, preferably approximately 1 to 2 minutes.
These histological findings are similar to those reported in a recently described rat model of continuous jugular vein infusion of TCDC at a rate of 0.4 to 0.6 μmol/min/100 gram over 60 minutes^31. […] However, the model of the instant invention produced similar results at half the TCDC dosages of the continuous TCDC infusion model, and allows for rapid, convenient infusion of TCDC.
Based on these biochemical and histological findings, a suitable time point for the embodiment of the instant invention using TCDC as the toxic bile acid was the 4 hour, 10 μmol/100 gram weight dose.

hepatic mitochondria = experiment: Lipid-conjugated dienes of hepatic mitochondria (lipid peroxidation); format: in vivo, male Sprague-Dawley rats
Protocol: Hepatic Mitochondria Isolation
Mitochondria were isolated from 10 grams of fresh liver from individual rats by a modification of a previously described method^27. Briefly, the liver was gently homogenized in a loose-fitting Potter-Elvehjm homogenizer in buffer containing 225 mM mannitol, 70 mM sucrose, 3 mM KH2 PO4, 2mM EDTA, 0.1% BSA, 5 mM MgCl2 (pH 7.0), filtered through cheesecloth and centrifuged at 400g×10 minutes. The supernatant was centrifuged at 10,000g for 10 minutes. The supernatant was aspirated and the pellet resuspended and centrifuged at 10,000g for 10 minutes. The resulting mitochondrial pellet was resuspended in 15 ml of buffer, divided into three tubes and added to digitonin (Sigma Chemical Company, St Louis, Mo., 0.29 mg for each gram of original liver) on wet ice×20 minutes, in order to minimize any contamination by lysosomes^28. The resulting mitochondrial preparation was washed two times in the original buffer and centrifuged at 10,000g for 10 minutes. Samples of the pellet were taken for enzyme marker analysis. Two more washes were then performed using a buffer containing 50 mM MOPS/100 mM KCI, yielding the final mitochondrial pellet.
Fresh mitochondria were analyzed for lipid peroxidation as an index of oxidant damage by the lipid-conjugated diene method of Recknagel and Ghoshal^35 with the modification of Bacon et al^36. Briefly, lipids were extracted from mitochondria pellets with chloroform and methanol (2:1, vol/vol), and the lipid in chloroform was dried under a stream of oxygen-free nitrogen^27. The dried lipid was redissolved in 1.5 ml of spectrophotometric grade cyclohexane. Absorbance from 220 to 275 nm was recorded against a cyclohexane blank on a Lambda 2 UV/is Spectrometer (Perkin-Elmer Corp., Norwalk, Conn.). Lipid concentration was approximately 0.5 mg/mi of cyclohexane. After the UV measurements, a 250 μl aliquot from each sample was analyzed for total lipid content by the method of Chiang et al.^37, and absorbance measurements were normalized to a denominator of 1.0 mg lipid per ml of cyclohexane. Lipid peroxidation was estimated by calculating the difference in absorption at 233 nm (the peak absorbance for conjugated dienes) between each rat and the mean of the values from control rats.
as §1
Rats were divided into two treatment groups. One group was pretreated with parenteral Vitamin E (all-rac-alpha tocopherol, Ephynal, Hoffmann-LaRoche,Nutley, N.J.). The other group was not pretreated. […]

[2] = 4 h after i.v. TCDC 10 μmol/100 gram, mean ± SEM, n = 5, P < 0.05 versus vehicle
[3] = 4 h after i.v. TCDC 10 μmol/100 gram, mean ± SEM, n = 5, conjugates plus unconjugates

Serum individual bile acids, change versus vehicle ([1]; 4 h after i.v. TCDC 10 μmol/100 gram): significant increases in most bile acids
Serum alpha-muricholic acid concentration [1, 2]: 77.4 ± 15.9 µmol/L
Serum beta-muricholic acid concentration [1, 2]: 12.4 ± 3.3 µmol/L
Serum cholic acid concentration [1, 2]: 134.8 ± 30.2 µmol/L
Serum total bile acids concentration [1, 2]: 277.8 ± 49.0 µmol/L
Serum deoxycholic acid concentration [1, 3]: 4.8 ± 1.2 µmol/L
Serum lithocholic acid concentration [1, 3]: 0.6 ± 0.2 µmol/L
Serum ursodeoxycholic acid concentration [1, 3]: 4.4 ± 0.4 µmol/L
Lithocholate conjugates, change ([1]; in vivo model, TCDC): lack of substantial elevation
Hepatic mitochondrial lipid-conjugated dienes, change versus vehicle (hepatic mitochondria; 4 h after TCDC 10 μmol/100 gram): significant elevations
Lipid-conjugated dienes (hepatic mitochondria; Control/TCDC, n = 13, 4 h): 0.24 ± 0.02 delta abs. 233 nm/mg lipid
Structure (SMILES): C[C@H](CCC(=O)NCCS(=O)(=O)O)[C@H]1CC[C@H]2[C@@H]3[C@H](O)C[C@@H]4C[C@H](O)CC[C@]4(C)[C@H]3CC[C@]12C [TCDC, taurochenodeoxycholic acid]
CDC concentrations, change ([1]; in vivo model, TCDC): elevated to a similar extent as the other bile acids
Histology of the liver (liver; 4 h after TCDC 10 μmol/100 gram weight): mild hepatocyte swelling, variable necrosis of individual hepatocytes, mild portal tract infiltration with lymphocytes without bile duct injury, and accumulation of smooth eosinophilic globules
Reversibility of hepatocyte injury (liver; TCDC 10 μmol/100 gram weight, 24 h): much reduced by 24 hours after injection
Predominant histological findings of the in vivo model (liver; rat model, TCDC): Hepatocyte swelling and a mild degree of cellular necrosis
